For experiment [1], the target named is T1, human RORγt ligand binding domain (RORγt LBD) (Homo sapiens, UniProt P51449).
T1 construct: His-tag (N); TurboTEV protease cleavage site (ENLYFQG) (N); made in house; host or cells: E. coli (pHIS1, modified pET vector)
T1 sequence (P51449 with tags, fused parts or gaps): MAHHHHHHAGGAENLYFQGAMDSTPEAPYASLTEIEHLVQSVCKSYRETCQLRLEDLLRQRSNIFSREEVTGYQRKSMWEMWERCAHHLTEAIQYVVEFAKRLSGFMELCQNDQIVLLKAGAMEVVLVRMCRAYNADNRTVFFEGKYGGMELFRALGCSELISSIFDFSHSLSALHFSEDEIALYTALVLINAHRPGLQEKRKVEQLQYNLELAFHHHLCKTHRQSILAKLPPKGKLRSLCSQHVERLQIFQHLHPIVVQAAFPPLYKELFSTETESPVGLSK
Description: RORγt ThermoFluor assay (thermal shift, ligand binding affinity). The settings on record: estimated from concentration response of thermal shift. A digest of the protocol:
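Thermal shift of 0.065 mg/mL RORγt with 60 μM 1,8-ANS in 100 mM Hepes pH 7.0, 10 mM NaCl, 2.5 mM GSH, 0.002% Tween-20. Compounds in 1:2 series from 10 mM DMSO stock. Dye fluorescence (500 nm emission) tracked versus temperature; ΔTm used to derive KD.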

Experiment [2] has as its target T2, human RORγt LBD (Homo sapiens, UniProt P51449).
T2 construct: expressed in transfected cells
T2 sequence (P51449 258-518): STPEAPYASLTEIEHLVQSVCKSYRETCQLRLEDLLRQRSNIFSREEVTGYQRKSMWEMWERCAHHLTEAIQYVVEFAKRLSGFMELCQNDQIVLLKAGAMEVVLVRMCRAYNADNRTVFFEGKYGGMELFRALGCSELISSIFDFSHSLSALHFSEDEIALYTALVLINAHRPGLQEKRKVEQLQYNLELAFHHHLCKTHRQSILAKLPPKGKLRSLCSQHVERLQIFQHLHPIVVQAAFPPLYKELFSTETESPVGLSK
The experiment is described as follows: RORγt reporter assay (GAL4-RORγt LBD luciferase in HEK293T cells). The experiment is classed as cell-based. Particulars: for RORγt reporter Assay, % inhibition @ 6 μM / IC50: HEK293T cells; for RORγt reporter Assay, % inhibition @ 6 μM: 6 μM compound; for IC50: 24 hours compound treatment; for inhibition at 6 µM: HEK-293T, read-out: RORγt reporter Assay, % inhibition @ 6 μM, HEK293T cells, 6 μM compound. A digest of the protocol: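 HEK293T cells transiently co-transfected with pBIND (GAL4 DBD fused to wild-type human RORγt LBD, plus SV40-driven renilla luciferase) and pGL4.31 GAL4-responsive firefly luciferase reporter. Plated in phenol-red-free DMEM with 5% lipid-reduced FCS and treated with compound for 24 h. Firefly/renilla luminescence ratio plotted against compound concentration.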

Experiment [3] has as its system IL-17 production by CD4 T cells. The experiment is described as follows: Human Th17 assay (IL-17 production by CD4 T cells under Th17 differentiation conditions). The experiment is classed as cell-based. The settings on record: IL-17 in supernatant after 3 days. The procedure:
The human Th17 assay tests the effect of RORγt modulatory compounds on IL-17 production by CD4 T cells under conditions which favor Th17 differentiation. Total CD4^+ T cells were isolated from the peripheral blood mononuclear cells (PBMC) of healthy donors using a CD4^+ T cell isolation kit II, following the manufacturer's instructions (Miltenyi Biotec). […] 50 μL of compound at titrated concentrations in DMSO were added into each well at final DMSO concentration at 0.2%. Cells were incubated for 1 hour, then 50 μL of Th17 cell differentiation medium was added to each well. The final concentrations of antibodies and cytokines (R&D Systems) in differentiation medium were: 3×10^6/mL anti-CD3/CD28 beads (prepared using human T cell activation/expansion kit, Miltenyi Biotec), 10 μg/mL anti-IL4, 10 μg/mL anti-IFNγ, 10 ng/mL IL113, 10 ng/mL IL23, 50 ng/mL IL6, 3 ng/mL TGFβ and 20 U/mL IL2. Cells were cultured at 37° C. and 5% CO2 for 3 days. Supernatants were collected and the accumulated IL-17 in culture was measured by using MULTI-SPOT® Cytokine Plate following manufacture's instruction (Meso Scale Discovery). The plate was read using Sector Imager 6000, and IL-17 concentration was extrapolated from the standard curve. The IC50s were determined by GraphPad.

Structures can show the parent of a compound that is named as a salt.

Consider `CC(=O)N1CCC(C(O)(c2ccc3nc(C(F)(F)F)c(-c4ccccc4)c(C(F)(F)F)c3c2)c2cncn2C)CC1` (single isomer, unassigned) [Example 181c, 1-(4-(Hydroxy(1-methyl-1H-imidazol-5-yl)(3-phenyl-2,4-bis(trifluoromethyl)quinolin-6-yl)methyl)piperidin-1-yl)ethanone], for which the Kd in experiment [1] was 23 nM. Moreover, in experiment [2], the “RORγt reporter Assay, % inhibition @ 6 μM” value is 105%. Also, the values for the IC50 in experiment [2] and in experiment [3] were 53 nM and 160 nM, respectively.

With `Cn1cncc1C(O)(c1ccnc(Cl)c1)c1ccc2nc(Cl)c(-c3ccccc3)c(Cl)c2c1` (stereo not shown) [Example 66, (2-Chloropyridin-4-yl)(2,4-dichloro-3-phenylquinolin-6-yl)(1-methyl-1H-imidazol-5-yl)methanol•TFA], the Kd in experiment [1] was 1.7 nM. The IC50 worked out at 10 nM in experiment [2] and 59 nM in experiment [3] (Homo sapiens, CD4+ T, 72 h). Moreover, the inhibition at 6 µM in experiment [2] stood at 105%.

For the compound `Cn1cncc1C(O)(c1ccc(Cl)cc1)c1ccc2nc(Cl)c(-c3ccccc3Cl)c(Cl)c2c1` (single isomer, unassigned) [Example 153c, (4-Chlorophenyl)(2,4-dichloro-3-(2-chlorophenyl)quinolin-6-yl)(1-methyl-1H-imidazol-5-yl)methanol], the Kd in experiment [1] was 19 nM. Further, the “RORγt reporter Assay, % inhibition @ 6 μM” value in experiment [2] was determined as 96%. Also, the IC50 in experiment [2] amounted to 140 nM; in experiment [3], 250 nM.

On to `Cc1cc(C(O)(c2cc(C)c3nc(Cl)c(-c4ccccc4)c(Cl)c3c2)c2cncn2C)ccn1` (stereo not shown) [Example 159, (2,4-Dichloro-8-methyl-3-phenylquinolin-6-yl)(1-methyl-1H-imidazol-5-yl)(2-methylpyridin-4-yl)methanol•TFA], for which the Kd in experiment [1] was 1.2 nM. The IC50 in experiment [2] is 17 nM; in experiment [3] (Homo sapiens, CD4+ T, 72 h), 75 nM. Further, in experiment [2], the inhibition at 6 µM stood at 93%.

`Cc1cc(C(O)(c2ccnc(C(F)(F)F)c2)c2cncn2C)cc2c(Cl)c(-c3ccccc3)c(Cl)nc12` (stereo not shown) [Example 160, (2,4-Dichloro-8-methyl-3-phenylquinolin-6-yl)(1-methyl-1H-imidazol-5-yl)(2-(trifluoromethyl)pyridin-4-yl)methanol•TFA]: in experiment [1], the Kd is 6.1 nM. The IC50 is 120 nM in experiment [2] and 690 nM in experiment [3] (Homo sapiens, CD4+ T, 72 h). The inhibition at 6 µM in experiment [2] amounted to 97%.

`COc1nc2c(C)cc(C(O)(c3ccc(C(F)(F)F)nc3)c3cncn3C)cc2c(Cl)c1-c1cccc(F)c1` (single isomer, unassigned) [Example 177c, (4-Chloro-3-(3-fluorophenyl)-2-methoxy-8-methylquinolin-6-yl)(1-methyl-1H-imidazol-5-yl)(6-(trifluoromethyl)pyridin-3-yl)methanol]: the Kd in experiment [1] was 1300 nM. For the same compound, in experiment [2], the “RORγt reporter Assay, % inhibition @ 6 μM” value was 98% and inhibition was half-maximal at 360 nM (IC50). In addition, the IC50 in experiment [3] came out at 2500 nM.

For `Cn1cncc1C(O)(c1ccc(F)nc1)c1ccc2nc(Cl)c(-c3ccccc3)c(Cl)c2c1` (stereo not shown) [Example 12, (2,4-Dichloro-3-phenylquinolin-6-yl)(6-fluoropyridin-3-yl)(1-methyl-1H-imidazol-5-yl)methanol•TFA], the Kd in experiment [1] was 22 nM. Moreover, in experiment [2], the IC50 is approximately 100 nM and the inhibition at 6 µM was 103%. The compound further yielded an IC50 in experiment [3] (Homo sapiens, CD4+ T, 72 h) of 330 nM.

With `CC(=O)N1CCC(C(O)(c2ccccc2)c2ccc3nc(C(F)(F)F)c(-c4ccccc4)c(C(F)(F)F)c3c2)CC1` (racemic) [Example 169a, 1-(4-(Hydroxy(phenyl)(3-phenyl-2,4-bis(trifluoromethyl)quinolin-6-yl)methyl)piperidin-1-yl)ethanone], the Kd in experiment [1] is 8.1 nM. Moreover, the IC50 amounted to 72 nM in experiment [2] and 66 nM in experiment [3] (Homo sapiens, CD4+ T, 72 h). In experiment [2], the inhibition at 6 µM is 96%.

Take `Cc1cc(C(O)(c2ccc(C(F)(F)F)nc2)c2cncn2C)cc2c(C#N)c(-c3cccc(F)c3)c(C#N)nc12` (single isomer, unassigned) [Example 176c, 3-(3-Fluorophenyl)-6-(hydroxy(1-methyl-1H-imidazol-5-yl)(6-(trifluoromethyl)pyridin-3-yl)methyl)-8-methylquinoline-2,4-dicarbonitrile]: the Kd in experiment [1] is 68 nM. Further, in experiment [2], the “RORγt reporter Assay, % inhibition @ 6 μM” value came out at 95% and the IC50 was found to be 320 nM. The compound also returned an IC50 in experiment [3] (Homo sapiens, CD4+ T, 72 h) of 310 nM.

For `Cn1cncc1C(O)(c1ccncc1)c1ccc2nc(Cl)c(-c3ccccc3)c(N3CCC(O)CC3)c2c1` (stereo not shown) [Example 73, 1-{2-Chloro-6-[hydroxy(1-methyl-1H-imidazol-5-yl)pyridin-4-ylmethyl]-3-phenylquinolin-4-yl}piperidin-4-ol•TFA], the Kd in experiment [1] is 18 nM. In experiment [2], the IC50 was determined as 360 nM and the inhibition at 6 µM was 88%. In experiment [3] (Homo sapiens, CD4+ T, 72 h), this compound displayed an IC50 of 1200 nM.

For the compound `CN(C)c1nc2ccc(C(O)(c3cccnc3)c3ccccc3Cl)cc2c(Cl)c1-c1ccccc1` (stereo not shown) [Example 44, [4-Chloro-2-(dimethylamino)-3-phenylquinolin-6-yl](2-chlorophenyl)pyridin-3-ylmethanol•TFA], the equilibrium dissociation constant (Kd) in experiment [1] is 330 nM. Further, in experiment [2], 170 nM corresponded to half-maximal inhibition (IC50) and the inhibition at 6 µM turned out to be 97%. In experiment [3] (Homo sapiens, CD4+ T, 72 h), this compound showed an IC50 of 550 nM.

As for `COc1cccc(C(O)(c2cccnc2)c2ccc3nc(Cl)c(-c4ccccc4)c(Cl)c3c2)c1` (stereo not shown) [Example 54, (2,4-Dichloro-3-phenylquinolin-6-yl)(3-methoxyphenyl)pyridin-3-ylmethanol], the Kd in experiment [1] is 39 nM. In experiment [2], the IC50 amounted to 150 nM and the inhibition at 6 µM turned out to be 97%. This compound also gave an IC50 in experiment [3] (Homo sapiens, CD4+ T, 72 h) of 360 nM.

`COc1ccc(C(O)(c2ccc3nc(Cl)c(-c4ccccc4)c(Cl)c3c2)c2cc(C)no2)cn1` (stereo not shown) [Example 131, (2,4-Dichloro-3-phenylquinolin-6-yl)(6-methoxypyridin-3-yl)(3-methylisoxazol-5-yl)methanol•TFA]: the Kd in experiment [1] was 26 nM. In addition, in experiment [2], the IC50 came to 91 nM and the inhibition at 6 µM stood at 100%. The same compound had an IC50 in experiment [3] (Homo sapiens, CD4+ T, 72 h) of 210 nM.

As for `OC(c1ccc(C(F)(F)F)cc1)(c1cccnc1)c1ccc2nc(Cl)c(-c3ccccc3)c(Cl)c2c1` (stereo not shown) [Example 171, (2,4-Dichloro-3-phenylquinolin-6-yl)(pyridin-3-yl)(4-(trifluoromethyl)phenyl)methanol•TFA], in experiment [1], the Kd is 140 nM. The IC50 was found to be 320 nM in experiment [2] and 300 nM in experiment [3] (Homo sapiens, CD4+ T, 72 h). In addition, the inhibition at 6 µM in experiment [2] turned out to be 85%.

Take `CN(C)c1nc2ccc(C(O)(c3ccccn3)c3cncn3C)cc2c(Cl)c1-c1ccccc1` (stereo not shown) [Example 36, [4-Chloro-2-(dimethylamino)-3-phenylquinolin-6-yl](1-methyl-1H-imidazol-5-yl)pyridin-2-ylmethanol•TFA]: the Kd in experiment [1] was 2000 nM. Besides, the IC50 was found to be 290 nM in experiment [2] and 1600 nM in experiment [3] (Homo sapiens, CD4+ T, 72 h). The inhibition at 6 µM in experiment [2] was 98%.

Take `Cc1cc(C(O)(c2ccc(C(F)(F)F)nc2)c2cncn2C)cc2c(C#N)c(-c3ccc(F)cc3)c(C#N)nc12` (single isomer, unassigned) [Example 184c, 3-(4-Fluorophenyl)-6-(hydroxy(1-methyl-1H-imidazol-5-yl)(6-(trifluoromethyl)pyridin-3-yl)methyl)-8-methylquinoline-2,4-dicarbonitrile]: in experiment [1], the Kd was 41 nM. Besides, in experiment [2], the “RORγt reporter Assay, % inhibition @ 6 μM” value is recorded as 97% and the IC50 amounted to 260 nM. This compound yielded an IC50 in experiment [3] (Homo sapiens, CD4+ T, 72 h) of 700 nM.
